Values of other authors in patent publication US8404715B2, “Methods and compositions using racemic, (R)-, and (S)-fexofenadine in combination with leukotriene inhibitors” (Sunovion Pharmaceuticals Inc., priority 1998, dated 2013).
Where two headings read alike, the source gives them in different places. Blank lines part the entries; values can stand above or below the compound they belong to.

Legend:
LTB4 formation = settings: ex vivo, several species
[1] = system: leukotriene (LTH4, LTC4, LTD4, and LTE4) formation; settings: in vitro
[2] = in some patients
[3] = system: leukotriene-dependent smooth muscle contractions; settings: in vitro, human airways
[4] = 373 patients
[5] = system: leukotriene-dependent smooth muscle contractions; settings: in vitro, guinea pig airways
LTD4 (leukotriene D4) = settings: guinea pigs
[6] = in vivo
[7] = system: nasal response to allergen challenge
LTD4 [8] = settings: in vivo
LTD4 [9] = settings: in vivo; remark: listed apart in the source
[10] = in some patients; remark: listed apart in the source
[11] = system: contractile activity of three leukotrienes; settings: humans
[12] = system: contractile activity of three leukotrienes; settings: laboratory animals

SMILES: CC(c1cc2ccccc2s1)N(O)C(N)=O (racemic) [zileuton, (±)-1-(1-Benso[b]thien-2-ylethyl)-1-hydroxyurea]
LTB4 formation (LTB4 formation): inhibitor
leukotriene (LTH4, LTC4, LTD4, and LTE4) formation [1]: inhibit
adverse effects reported [2]: headache, pain, asthenia, dyspepsia, nausea, and myalgia
leukotriene-dependent smooth muscle contractions [3]: inhibits
efficacy ([4]; 400 mg): failed to do so
efficacy ([4]; 600 mg four times daily): required to provide efficacy
leukotriene-dependent smooth muscle contractions [5]: inhibits

absorption [6]: well absorbed
metabolism [6]: extensively metabolized
SMILES: CC(C)(C)c1ccc(C(O)CCCN2CCC(C(O)(c3ccccc3)c3ccccc3)CC2)cc1 (stereo not shown) [Terfenadine]
increase in airway resistance caused by LTD4 (LTD4 (leukotriene D4)): suppressed
early nasal response to allergen challenge ([7]; in vivo): partially inhibits
influx of eosinophils into nasal secretions ([7]; in vivo): without affecting
subsequent reactivity to a challenge with methacholine ([7]; in vivo): partially inhibits
levels of tryptase, prostaglandin D2 and leukotriene C4 ([7]; relative to the placebo, differences did not achieve statistical significance): tended to decrease

SMILES: COc1cc(C(=O)NS(=O)(=O)c2ccccc2C)ccc1Cc1cn(C)c2ccc(NC(=O)OC3CCCC3)cc12 [zafirlukast, 4-(5-cyclopentyloxy-carbonylamino-1-methyl-indol-8-ylmethyl)-3-methoxy-N-o-tolylsulfonylbenzamide]
intradermal LTD4-induced increases in cutaneous vascular permeability (LTD4 [8]): prevented
inhaled LTD4-induced influx of eosinophils into animal lungs (LTD4 [9]): inhibited
adverse effects reported [10]: headache, infection, nausea, diarrhea, pain, asthenia, abdominal pain, dizziness, myalgia, fever, vomiting, SGPT elevation, and dyspepsia
contractile activity of three leukotrienes in conducting airway smooth muscle [11]: antagonized
contractile activity of three leukotrienes in conducting airway smooth muscle [12]: antagonized
